# According to patent US11046686B2, “Thiadiazole IRAK4 compounds” (Gilead Sciences, Inc., priority 2018, dated 2021):
# pEC50: −log10 of the molar value.
# System: TNFα
# Test: IRAK4 Monocyte TNFα Cell Based Assay
# Design: species or system human
# Conditions: Homo sapiens, Monocyte, human monocytes, LPS stimulated; compounds 1-32; read-out: EC50 TNF
# Protocol: IRAK4 Monocyte TNFα Cell Based Assay Procedure:
# The cell suspension was then plated at a density of 5,000 cells/well onto black 384 well Greiner clear bottom plates. Plates were pre-spotted with test compounds and serially diluted in DMSO where 40 nL/well were delivered using the Echo 550 acoustic liquid dispenser (Labcyte®) for a final DMSO concentration of 0.1%. Plated cells were treated with compound for 1 hour at 37° C. Cells were then stimulated with 50 pg/ml of LPS (Sigma) excluding outside columns of plate used for unstimulated cell control wells. Cells were incubated for an additional 4 hours at 37° C. Cells were then spun out of the media and 5 μl of sample were taken and analyzed for total TNFα content using the TR-FRET Human TNFα detection system (CisBio). This system utilizes two labeled antibodies (cryptate and XL665) that bind to two different epitopes of the TNFα molecule and produce FRET signal proportional to the concentration of TNFα in the sample. Detection antibodies are mixed 50:50 and 5 μL were dispensed into each well. Plates were covered with clear seals and incubated at room temp overnight. […] Percent of control was calculated as follows: % Control=100×(Ratiosample−Ratio0% stimulation)/(Ratio100% Stimulation−Ratio0% Stimulation) where unstimulated cells (0% stimulation) were the negative control and stimulated cells (100% stimulation) were used as the positive control.
row,pEC50,SMILES
1,5.38,"CC(C)Nc1cc(-c2ccc3cc(C#N)cnn23)ncc1-c1nnc(N2CCCC2)s1 [Example 29, 7-(4-(isopropylamino)-5-(5-(pyrrolidin-1-yl)-1,3,4-thiadiazol-2-yl)pyridin-2-yl)pyrrolo[1,2-b]pyridazine-3-carbonitrile]"

# Same assay, conditions: Homo sapiens, Monocyte, read-out: EC50 MONO TNF HTRF
row,SMILES,pEC50
1,"CC(C)Nc1cc(-c2ccc3cc(C#N)cnn23)ncc1-c1nnc(N2CC3CC(C2)N3C(=O)CN=S(C)(C)=O)s1 [Example 107, 7-(5-(5-(6-(2-((dimethyl(oxo)-16-sulfanylidene)amino)acetyl)-3,6-diazabicyclo[3.1.1]heptan-3-yl)-1,3,4-thiadiazol-2-yl)-4-(isopropylamino)pyridin-2-yl)pyrrolo[1,2-b]pyridazine-3-carbonitrile]",7.74
2,"CN1CCN(C(=O)N2C3CC2CN(c2nnc(-c4cnc(-c5ccc6cc(C#N)cnn56)cc4NC4(C)COC4)s2)C3)CC1 [Example 114, 7-(4-((3-methyloxetan-3-yl)amino)-5-(5-(6-(4-methylpiperazine-1-carbonyl)-3,6-diazabicyclo[3.1.1]heptan-3-yl)-1,3,4-thiadiazol-2-yl)pyridin-2-yl)pyrrolo[1,2-b]pyridazine-3-carbonitrile]",7.61

# Same assay, conditions: human monocytes; second part of Table 2, compounds 33-343; unit inferred; read-out: EC50 MONO TNF HTRF
row,pEC50,SMILES
1,7.72,CC(=O)N[C@@H]1CN(c2nnc(-c3cnc(-c4ccc5cc(C#N)cnn45)cc3NC(C)C)s2)CC12CC2 [Compound 324]
2,7.98,CC(=O)N[C@H]1[C@@H]2CC[C@H]1CN(c1nnc(-c3cnc(-c4ccc5cc(C#N)cnn45)cc3NC(C)C)s1)C2 [Example 39]
3,8.07,"CC(=O)N[C@H]1CC[C@@H](c2nnc(-c3cnc(-c4ccc5cc(C#N)cnn45)cc3NC(C)C)s2)OC1 [Example 84, N-((3S,6S)-6-(5-(6-(3-cyanopyrro1o[1,2-b]pyridazin-7-yl)-4-(isopropylamino)pyridin-3-yl)-1,3,4-thiadiazol-2-yl)tetrahydro-2H-pyran-3-yl)acetamide]"
4,8.08,"CC(C)Nc1cc(-c2ccc3cc(C#N)cnn23)ncc1-c1nnc(N2CC[C@@](C)(O)[C@@H](F)C2)s1 [Example 186, 7-(5-(5-((3S,4R)-3-fluoro-4-hydroxy-4-methylpiperidin-l-yl)-1,3,4-thiadiazol-2-yl)-4-(isopropylamino)pyridin-2-yl)pyrrolo[1,2-b]pyridazine-3-carbonitrile]"
5,8.03,"CC(C)Nc1cc(-c2ccc3cc(C#N)cnn23)ncc1-c1nnc(N2C[C@H]3CC[C@@H](C2)[C@@H]3NS(C)(=O)=O)s1 [Example 58, N-((1R,5S,8s)-3-(5-(6-(3-cyanopyrrolo[1,2-b]pyridazin-7-yl)-4-(isopropylamino)pyridin-3-yl)-1,3,4-thiadiazol-2-yl)-3-azabicyclo[3.2.1]octan-8-yl)methanesulfonamide]"
6,8.68,"CC(=O)N[C@@H]1[C@@H]2CC[C@H]1CN(c1nnc(-c3cnc(-c4ccc5cc(C#N)cnn45)cc3NC3CCOCC3)s1)C2 [Example 171, N-((1R,5S,8s)-3-(5-(6-(3-cyanopyrrolo[1,2-b]pyridazin-7-yl)-4-((tetrahydro-2H-pyran-4-yl)amino)pyridin-3-yl)-1,3,4-thiadiazol-2-yl)-3-azabicyclo[3.2.1]octan-8-yl)acetamide]"
7,5.68,CC(C)Nc1cc(-c2ccc3cc(C#N)cnn23)ncc1-c1nnc(C(=O)N[C@H]2C[C@](C)(O)C2)s1 [Example 219]
8,6.78,CC(=O)N[C@H]1C[C@H](c2nnc(-c3cnc(-c4ccc5cc(C#N)cnn45)cc3NC3COC3)s2)C1 [Example 202]
9,7.31,CC(C)(O)C(=O)NC12CCC(c3nnc(-c4cnc(-c5ccc6cc(C#N)cnn56)cc4NC4COC4)s3)(C1)C2 [Compound 335]
10,8.59,"CC(C)Nc1cc(-c2ccc3cc(C#N)cnn23)ncc1-c1nnc(N2C[C@H]3CC[C@@H](C2)[C@@H]3NC(=O)N2CCN(S(C)(=O)=O)CC2)s1 [Example 106, N-((1R,5S,8s)-3-(5-(6-(3-cyanopyrrolo[1,2-b]pyridazin-7-yl)-4-(isopropylamino)pyridin-3-yl)-1,3,4-thiadiazol-2-yl)-3-azabicyclo[3.2.1]octan-8-yl)-4-(methylsulfonyl)piperazine-1-carboxamide]"
11,7.79,"CC(=O)NC[C@H]1C[C@H](c2nnc(-c3cnc(-c4ccc5cc(C#N)cnn45)cc3NC(C)C)s2)C1 [Example 290, N-(((1r,3r)-3-(5-(6-(3-cyanopyrrolo[1,2-b]pyridazin-7-yl)-4-(isopropylamino)pyridin-3-yl)-1,3,4-thiadiazol-2-yl)cyclobutyl)methyl)acetamide]"
12,8.46,"CC(=O)N[C@@H]1[C@@H]2C[C@H]1CN(c1nnc(-c3cnc(-c4ccc5cc(C#N)cnn45)cc3N[C@H](C)C#N)s1)C2 [Example 174, N-((1R,5S,6S)-3-(5-(4-(((R)-1-cyanoethyl)amino)-6-(3-cyanopyrrolo[1,2-b]pyridazin-7-yl)pyridin-3-yl)-1,3,4-thiadiazol-2-yl)-3-azabicyclo[3.1.1]heptan-6-yl)acetamide]"
13,8.31,"CC(C)Nc1cc(-c2ccc3cc(C#N)cnn23)ncc1-c1nnc(N2C[C@H]3CC[C@@H](C2)[C@@H]3N2CCOC2=O)s1 [Example 301, 7-(4-(isopropylamino)-5-(5-((1R,5S,8s)-8-(2-oxooxazolidin-3-yl)-3-azabicyclo[3.2.1]octan-3-yl)-1,3,4-thiadiazol-2-yl)pyridin-2-yl)pyrrolo[1,2-b]pyridazine-3-carbonitrile]"
14,8.33,"COC(=O)NC[C@H]1C[C@H](Nc2cc(-c3ccc4cc(C#N)cnn34)ncc2-c2nnc(N3CCN4CCOC[C@H]4C3)s2)C1 [Example 51, methyl (((1R,3r)-3-((2-(3-cyanopyrrolo[1,2-b]pyridazin-7-yl)-5-(5-((R)-hexahydropyrazino[2,1-c][1,4]oxazin-8(1H)-yl)-1,3,4-thiadiazol-2-yl)pyridin-4-yl)amino)cyclobutyl)methyl)carbamate]"
15,8.28,"CC(C)Nc1cc(-c2ccc3cc(C#N)cnn23)ncc1-c1nnc(N2C[C@H]3CC[C@@H](C2)[C@@H]3NC(=O)C2CC2)s1 [Example 150, N-((1R,5S,8s)-3-(5-(6-(3-cyanopyrrolo[1,2-b]pyridazin-7-yl)-4-(isopropylamino)pyridin-3-yl)-1,3,4-thiadiazol-2-yl)-3-azabicyclo[3.2.1]octan-8-yl)cyclopropanecarboxamide]"
16,7.95,CC(C)Nc1cc(-c2ccc3cc(C#N)cnn23)ncc1-c1nnc(N2CC3CC(C2)N3C(=O)C2CCN(C)CC2)s1 [Example 117]
17,7.95,CC(C)Nc1cc(-c2ccc3cc(C#N)cnn23)ncc1-c1nnc(C(=O)N2CCC[C@H]2CO)s1 [Example 217]
18,7.88,"CC(C)Nc1cc(-c2ccc3cc(C#N)cnn23)ncc1-c1nnc(N2C[C@H]3CC[C@@H](C2)[C@@H]3O)s1 [Example 154, 7-(5-(5-((1R,5S,8s)-8-hydroxy-3-azabicyclo[3.2.1]octan-3-yl)-1,3,4-thiadiazol-2-yl)-4-(isopropylamino)pyridin-2-yl)pyrrolo[1,2-b]pyridazine-3-carbonitrile]"
19,8.17,"CC(C)Nc1cc(-c2ccc3cc(C#N)cnn23)ncc1-c1nnc(N2C[C@H]3CC[C@@H](C2)[C@@H]3NC(=O)N2CCOCC2)s1 [Example 57, N-((1R,5S,8s)-3-(5-(6-(3-cyanopyrrolo[1,2-b]pyridazin-7-yl)-4-(isopropylamino)pyridin-3-yl)-1,3,4-thiadiazol-2-yl)-3-azabicyclo[3.2.1]octan-8-yl)morpholine-4-carboxamide]"
20,8.92,"CC(C)(O)C(=O)N[C@@H]1[C@@H]2CC[C@H]1CN(c1nnc(-c3cnc(-c4ccc5cc(C#N)cnn45)cc3NC3CCOCC3)s1)C2 [Example 101, N-((1R,5S,8s)-3-(5-(6-(3-cyanopyrrolo[1,2-b]pyridazin-7-yl)-4-((tetrahydro-2H-pyran-4-yl)amino)pyridin-3-yl)-1,3,4-thiadiazol-2-yl)-3-azabicyclo[3.2.1]octan-8-yl)-2-hydroxy-2-methylpropanamide]"
21,7.59,"CC(C)Nc1cc(-c2ccc3cc(C#N)cnn23)ncc1-c1nnc(N2CC3CCC(C2)C3(O)C(F)(F)F)s1 (stereo not shown) [Example 159, 7-(5-(5-(8-hydroxy-8-(trifluoromethyl)-3-azabicyclo[3.2.1]octan-3-yl)-1,3,4-thiadiazol-2-yl)-4-(isopropylamino)pyridin-2-yl)pylrolo[1,2-b]pyridazine-3-carbonitrile]"
22,6.00,CC(C)Nc1cc(-c2ccc3cc(C#N)cnn23)ncc1-c1nnc(-n2cccn2)s1 [Compound 325]
23,8.64,"CC(=O)N[C@@H]1[C@@H]2CCC[C@H]1CN(c1nnc(-c3cnc(-c4ccc5cc(C#N)cnn45)cc3NC(C)C)s1)C2 [Example 166, N-((1R,5S,9s)-3-(5-(6-(3-cyanopyrrolo[1,2-b]pyridazin-7-yl)-4-(isopropylamino)pyridin-3-yl)-1,3,4-thiadiazol-2-yl)-3-azabicyclo[3.3.1]nonan-9-yl)acetamide]"
24,7.09,CC(C)Nc1cc(-c2ccc3cc(C#N)cnn23)ncc1-c1nnc(N2CC(N3CCC(F)(F)C3)C2)s1 [Compound 328]

row,SMILES,pEC50
1,"CC(=O)N1[C@@H]2COC[C@H]1CN(c1nnc(-c3cnc(-c4ccc5cc(C#N)cnn45)cc3NC3CCOCC3)s1)C2 [Compound 269, 7-(5-(5-((1R,5S)-9-acety1-3-oxa-7,9-diazabicyclo[3.3.1]nonan-7-yl)-1,3,4-thiadiazol-2-yl)-4-((tetrahydro-2H-pyran-4-yl)amino)pyridin-2-yl)pyrrolo[1,2-b]pyridazine-3-carbonitrile]",8.24
